In patent US9931444B2, “Polymeric composite materials with antimicrobial and biodegradable properties and uses thereof” (FONDAZIONE ISTITUTO ITALIANO DI TECNOLOGIA, priority 2012, dated 2018):

Key:
[1] = system: E. Coli; assay: Minimum bactericidal concentration of iodopovidone; assay type: cell-based
[2] = system: C. albicans; assay: Minimum fungicidal concentration of iodopovidone; assay type: cell-based

For iodopovidone, the minimum bactericidal concentration [1] was 2000 µM and the minimum fungicidal concentration [2] was 1000 µM.
